Laboratory results reported in patent publication US7485710B2, “Nucleic acids coding for adhesion factor of group B streptococcus, adhesion factors of group B streptococcus and further uses thereof” (priority 2002, dated 2009).

B1: PabD: C-terminally his-tagged fusion protein of GBS 6313 PabD (gbs0851) devoid of signal peptide (protein)
chain: DDNFEMPTRYVKMSEKSKAFYQRLQEKQRKAHTTVKTFNNSEIRHQLPLKQEKARNDIYNLGILISQESKGFIQRIDNAYSLENVSDIVNEAQALYKRNYDLFEKIKSTRDKVQVLLASHQDNTDLKNFYAELDDMYEHVYLNESRVEAINRNIQKYN
modifications: left off: small tags and cut ends
notes: C-terminally his-tagged fusion protein of GBS 6313 PabD (gbs0851) devoid of signal peptide

Legend:
A549 cells [1] = assay: Epithelial cell adherence and internalization assay of GBS 6313 in presence of proteins; assay type: cell-based, human; settings: for adherence of GBS 6313 to A549 cells in the presence of fusion protein / invasion of A549 cells by GBS 6313 in the presence of fusion protein: 100 μg/ml fusion protein (FIG. 19)
Protocol: The adherence of GBS 6313 to A549 cells (A) and its internalization into these cells (B) was arbitrarily set to 100% and the results obtained in the presence of the different fusion proteins was related to these values. Each experiment was performed at least three times in triplicate.
Adherence of GBS to epithelial cells and internalization into epithelial cells was assayed essentially as described previously (Caparon et al., 1991; Rubens et al. 1992). Briefly, A549 cells were transferred to 24-well tissue culture plates at approximately 4×10^5 cells per well and cultivated overnight in RPMI (Gibco BRL) tissue culture medium, supplemented with 10% of fetal calf serum. After replacement of the medium with 1 ml of fresh medium, the cells were infected with 5×10^6 streptococci per well and incubated at 37° C. for 2 h. The non-adherent bacteria were removed by washing three times with PBS. In adherence assays, the epithelial cells were subsequently detached from the well by the addition of trypsin/EDTA and lysed by adding 300 μl of distilled water. Adherent bacteria were quantitated by plating serial dilutions of the lysate onto THY agar plates. For internalization assays the epithelial cells were incubated after 2 h of infection for another 2 h in tissue culture medium supplemented with penicilling G (10 U) and streptomycin (0.01 mg) to kill extracellular bacteria. After three washes with PBS, the epithelial cells were detached by the addition of trypsin/EDTA and lysed in 300 μl of distilled water. The amount of intracellular bacteria was quantified by plating serial dilutions of the lysate onto THY agar plates. Each experiment was repeated at least three times in triplicate. […]
Adherence of S. agalactiae to A549 and HEL299 cells and internalization into these cells was assayed essentially as described in Example 1 for A549 cells. In some experiments, A549 cells were preincubated with different amounts of FbsA protein or FbsA-derived peptides in RPMI medium for 30 min with three subsequent washes with PBS.

A549 cells [2] = assay: Interaction of protein-coated latex beads with A549 cells (scanning electron microscopy); assay type: cell-based, human
Protocol: BSA-coated latex beads were used as a control.
Latex beads were either coated with BSA (A) or FbsA fusion protein (B-D) and the interaction of the coated beads with the lung epithelial cell line A549 was analyzed by scanning electron microscopy.
Approximately […] latex beads (3 μm diameter, Sigma) were washed tree times in PBS and then coated with 300 μg of fusion protein or BSA in 500 μl PBS overnight at 4° C. Coated beads were washed once in PBS and then blocked with 200 μl of 10 mg/ml BSA in PBS for 1 h at room temperature. Beads were washed twice in PBS and once in RPMI+10% FCS and then resupended in 1 ml of RPMI+10% FCS. 300 μl of beads were added to approximately 4×10^5 A549 cells in 24-well plates. The cells were incubated for 1 h at 37° C. (5% CO2), washed five times with PBS and fixed in a solution containing 3% glutaraldehyde and 5% formaldehyde in cacodylate bluffer for 45 min on ice. The samples were washed with cacodylate buffer, dehydrated in a graded series of acetone and subjected to critical point drying with CO2. Samples were then coated with a 10 nm thick gold film and examined by scanning electron microscopy as described previously (Reinscheid et al., 2001a).
Approximately 1×10^9 latex beads (3 μm diameter, Sigma) were washed three times in 25 mM 2-N-morpholinoethanesulfonic acid (MES), pH 6.8. One half was resuspended in 1.0 ml MES buffer containing 500 μg/ml FbsA fusion protein and the remaining half was resuspended in 1.0 ml MES buffer. The beads were incubated overnight at 4° C. with end-over-end rotation. After pelleting of the beads by centrifugation, the amount of remaining protein in the supernatant was determined with a Bradford protein assay kit (BioRad). The beads were washed once with MES buffer and blocked for 1 h with 10 mg/ml BSA in MES buffer at room temperature. The beads were washed twice with MES buffer, once with RPMI+10% FCS, and resuspended in RPMI+10% FCS. Confluent A549 cells in 24-well plates were inoculated with 2×10^8 beads per well in a total volume of 1.0 ml. The bead monolayer mixtures were incubated for 2 h at 37° C. in a 5% CO2 atmosphere. Cells were washed five times with PBS and fixed with 3% paraformaldehyde and 4% glutaraldehyde in […] cacodylate buffer for scanning electron microscopy. Scanning electron microscopy was performed with a Zeiss DSM 962 microscope.

[3] = Subcutaneous immunization of mice and probing of fusion proteins with mice sera; assay type: in vivo; settings: boost after three weeks, serum after six weeks, 1:1000 dilution
Source text: Serial dilutions of the fusion proteins PabA, PabB, and PabD were spotted onto nitrocellulose and probed with a 1:1000 dilution of the mice sera against the respective proteins. Bound antibodies were labelled with an anti-mouse-HRP conjugate and visualized by chemiluminescence.
To test, if the proteins PabA, PabB and PabD elicit an immune response in mice, purified PabA, PabB and PabD fusion protein was used for the subcutaneous immunization of mice. The mice were boosted after three weeks and serum was collected six weeks after the first immunization. Serial dilutions of the PabA, PabB, and PabD fusion proteins were blotted onto nitrocellulose and probed with the mice sera against the different proteins.

GBS strain 6313 = assay: Binding of radiolabelled human proteins to GBS; parameters: species or system Streptococcus agalactiae; settings: untreated bacteria
Protocol: Purified human fibrinogen was radiolabelled with ^125I, using the chloramin T method (Hunter and Greenwood, 1962). Binding of labelled fibrinogen to GBS was performed essentially as described by Chhatwal et al. (Chhatwal, Muller, and Blobel, 1983). Briefly, overnight cultures of GBS were pelleted by centrifugation, washed twice with phosphate-buffered saline supplemented with 0.02% Tween 20 (PBST) and adjusted photometrically to a transmission of 10% at 600 nm. A total of 0.2 ml of the bacterial suspension was added to 20 μl of ^125I-labelled fibrinogen containing 23 ng of fibrinogen. After incubation for 1 h at room temperature, the streptococci were sedimented by centrifugation and washed with 1 ml of PBST. The radioactivity of the pellet was finally measured in a gamma counter (Packard Instruments). The amount of bacterial-bound fibrinogen was calculated as the percentage of total radiolabelled fibrinogen added to the bacteria. In inhibition experiments, the binding of 23 ng of radiolabelled fibrinogen to 0.2 ml of GBS (T=10%) was determined in the presence of various amounts of FbsA fusion proteins, Bsp fusion protein or synthetic peptides. Each experiment was repeated at least three times in triplicate.
GBS strain 6313, belonging to serotype III, was tested in binding experiments for its interaction with radiolabelled human vitronectin, laminin, fibronectin, fibrinogen, and IgG. […]

[4] = 1 μg/ml of externally added fibrinogen
[5] = fibrinogen 0.1 μg/ml to 1.0 μg/ml, fibronectin 10 μg/ml, data not shown

| Molecule | adherence of GBS 6313 to A549 cells in the presence of fusion protein (A549 cells [1]) | invasion of A549 cells by GBS 6313 in the presence of fusion protein (A549 cells [1]) | binding of protein-coated latex beads to A549 cells (A549 cells [2]) | immune response in mice (detection of fusion protein by mice sera) [3] | radiolabelled protein accumulated on the surface of GBS 6313 (of total) (GBS strain 6313) | reduction of the adherence of GBS 6313 to A549 cells (A549 cells [1]; [4]) [%] | reduction of the invasion of A549 cells by GBS 6313 (A549 cells [1]; [4]) [%] | bacterial adherence to A549 cells after pre-incubation of S. agalactiae 6313 with protein (A549 cells [1]; [5]) | bacterial invasion of A549 cells after pre-incubation of S. agalactiae 6313 with protein (A549 cells [1]; [5]) |
| --- | --- | --- | --- | --- | --- | --- | --- | --- | --- |
| PabA | significantly reduced | significantly reduced | significant binding | high immunogenicity |  |  |  |  |  |
| fibrinogen: purified human fibrinogen (Sigma), 330 kDa plasma glycoprotein [reference compound] |  |  |  |  | about 50% | 90 | 90 | dose-dependent inhibition | dose-dependent inhibition |
| B1 | significantly reduced | significantly reduced | significant binding | high immunogenicity |  |  |  |  |  |
